Assays:
[1] = system: choroidal neovascularisation (CNV); assay: Case report: prophylactic triamcinolone to the orbital floor at cataract surgery in a high risk eye; assay type: in vivo, human
Source text: A patient in whom prophylactic treatment was used was a person. There was marked macula degeneration in both eyes. They underwent cataract surgery late in July 1995 and developed neovascularisation of the right macula within three weeks. They also had cataract in the left eye but surgery was deferred for fear of developing the same complication. In the left macula there were greater than 5 drusen, some of them larger than 500 μm, and coarse pigment clumping, all high risk features. The cataract in the left eye continued to advance. By August 1997 it was very dense, reducing the visual acuity to 6/24. In spite of the high risk of neovascularisation, they underwent surgery in October 1997. As a prophylactic measure to reduce the risk of subsequent CNV, they received 40 mg of triamcinolone to the orbital floor beneath the eye at the time of surgery. The visual acuity improved to 6/12. They progressed well until June 1998 when they developed left CNV. By this time the effect of the triamcinolone had worn off.

[2] = system: choroidal neovascularisation (CNV); assay: Illustrative case: intravitreal steroid treatment for the prevention of neovascularisation in a patient at high risk; assay type: in vivo, human
Description: This case illustrates how intravitreal steroid treatment might be used to prevent CNV in a high risk eye.
A patient presents with recent loss of vision in their right eye. Retinal haemorrhages and exudation are seen in the right macula. […] This is treated on its merits, but the patient is already legally blind (visual acuity less than 6/60) and likely to remain so.
The patient is otherwise healthy and looks as if they might well live another ten or twenty years.
It is explained to the patient that it has been well shown that the risk of developing neovascularisation in their left eye is roughly 90% over the next five years. Should this occur, the chance of saving reading and driving vision with conventional treatments would be less than 25%. The patient is informed that, since the formation of new blood vessels appears in this disease to be linked to chronic, low grade inflammation inside the eye, we believe that an injection of steroid into the eye may reduce the risk of developing neovascularisation in their left eye. […] Serious side effects of the injection are rare. The patient returns in one week, having considered their options, and elects to receive the treatment.
The patient's left eye is anaesthetised and sterilised with topical medications. An injection into the vitreous of 4 mg of triamcinolone (0.1 mL of a 40 mg/mL solution) is performed. The patient is reviewed at 1 and 6 weeks after the injection, then at 3, 6 and 12 months. […] A second injection of triamcinolone is instilled, with the patients consent, and they are reviewed with the same frequency as after the first injection. Two years after the first injection the patient's visual acuity remains 6/9. Further treatments are deferred and the patient is reviewed every 6 months.

[3] = Clinical observations of side effects of intravitreal triamcinolone; assay type: in vivo, human
Source text: Intravitreal triamcinolone presents a manageable side effect profile. Of the several hundred patients treated through the Sydney Eye Hospital over the last three years, no case of endophthalmitis, retinal detachment or vitreous haemorrhage has been reported. The commonest side effect is a modest elevation of the intraocular pressure of around 5 mmHg. This has been controlled with glaucoma medication where necessary, although if the optic nerve is not compromised and the pressure is less than 25 mmHg it is often reasonable to observe without treatment. The pressure invariably returns to normal after the drug wears off, which is usually after approximately 6 months.

[4] = system: choroidal neovascularisation in age-related macular degeneration; settings: introduced into the vitreous; cited from earlier work
[5] = 12 months after intravitreal injection of 4 mg

Substance: 9-fluoro-11,21-dihydroxy-16,17-[1-(methylethylidine)bis (oxy)]pregna-1,4-diene-3,20-dione [triamcinolone]
- formation of CNV after surgery ([1]; 40 mg to the orbital floor October 1997, left CNV developed June 1998): delayed the formation of CNV after surgery
- visual acuity after cataract surgery ([1]; person, left eye, 40 mg to the orbital floor at surgery, acuity 6/24 before surgery): 6/12
- complications of the procedure [2, 5]: no complications of the procedure have ensued
- evidence of neovascularisation [2, 5]: without evidence clinically or angiographically of neovascularisation
- visual acuity ([2]; 12 months after intravitreal injection of 4 mg, baseline 6/9): 6/9
- visual acuity ([2]; two years after the first injection, second injection at 12 months): 6/9
- cataract in the treated eye ([3]; follow-up to 18 months): this has not been a problem
- elevation of the intraocular pressure (commonest side effect) ([3]; intravitreal): around 5 mmHg
- endophthalmitis, retinal detachment or vitreous haemorrhage ([3]; several hundred patients treated intravitreally over three years): no case
- exudation [4]: control and resorbtion of exudation
- resident immune cell activity [4]: modulates the resident immune cell activity
- visual acuity [4]: improved visual acuity
